# Measurements reported in paper PMC6458995, “MAP4K4 Inhibition Promotes Survival of Human Stem Cell-Derived Cardiomyocytes and Reduces Infarct Size In Vivo” (Cell Stem Cell, 2019).
# What was measured:
# Test in all cases: Dundee kinase panel
# Format in all cases: biochemical
# Settings in all cases: read-out: residual activity
# IRAK1 = target: T1, IRAK1 (Homo sapiens, UniProt P51617)
# T1 construct: lines 1-140) and Reaction Biology
# Protocol: (§1) Compounds were screened at 1 μM. For key hits, pIC50 values were then determined by HTRF as above. […] Stability in mouse and human liver microsomes was determined by Cyprotex.
# DAPK1 = target: T2, DAPK1 (Homo sapiens, UniProt P53355)
# T2 construct: lines 1-140) and Reaction Biology
# Protocol: as §1
# MPSK1 = target: T3, MPSK1 (Homo sapiens, UniProt O75716)
# T3 construct: lines 1-140) and Reaction Biology
# T3 sequence (O75716 whole entry): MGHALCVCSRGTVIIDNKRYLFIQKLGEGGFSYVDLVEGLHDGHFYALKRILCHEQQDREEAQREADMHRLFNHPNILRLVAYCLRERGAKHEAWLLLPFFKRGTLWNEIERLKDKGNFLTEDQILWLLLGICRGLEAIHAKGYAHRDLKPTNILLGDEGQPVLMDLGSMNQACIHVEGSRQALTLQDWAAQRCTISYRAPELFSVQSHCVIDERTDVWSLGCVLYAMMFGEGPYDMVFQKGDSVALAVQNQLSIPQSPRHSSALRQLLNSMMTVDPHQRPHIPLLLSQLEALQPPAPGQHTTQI
# Protocol: as §1
# JNK3 = target: T4, JNK3 (Homo sapiens, UniProt P53779)
# T4 construct: lines 1-140) and Reaction Biology
# Protocol: as §1
# CAMK1 = target: T5, CAMK1 (Homo sapiens, UniProt Q14012)
# T5 construct: lines 1-140) and Reaction Biology
# Protocol: as §1
# SIK2 = target: T6, SIK2 (Homo sapiens, UniProt Q9H0K1)
# T6 construct: lines 1-140) and Reaction Biology
# T6 sequence (Q9H0K1 whole entry): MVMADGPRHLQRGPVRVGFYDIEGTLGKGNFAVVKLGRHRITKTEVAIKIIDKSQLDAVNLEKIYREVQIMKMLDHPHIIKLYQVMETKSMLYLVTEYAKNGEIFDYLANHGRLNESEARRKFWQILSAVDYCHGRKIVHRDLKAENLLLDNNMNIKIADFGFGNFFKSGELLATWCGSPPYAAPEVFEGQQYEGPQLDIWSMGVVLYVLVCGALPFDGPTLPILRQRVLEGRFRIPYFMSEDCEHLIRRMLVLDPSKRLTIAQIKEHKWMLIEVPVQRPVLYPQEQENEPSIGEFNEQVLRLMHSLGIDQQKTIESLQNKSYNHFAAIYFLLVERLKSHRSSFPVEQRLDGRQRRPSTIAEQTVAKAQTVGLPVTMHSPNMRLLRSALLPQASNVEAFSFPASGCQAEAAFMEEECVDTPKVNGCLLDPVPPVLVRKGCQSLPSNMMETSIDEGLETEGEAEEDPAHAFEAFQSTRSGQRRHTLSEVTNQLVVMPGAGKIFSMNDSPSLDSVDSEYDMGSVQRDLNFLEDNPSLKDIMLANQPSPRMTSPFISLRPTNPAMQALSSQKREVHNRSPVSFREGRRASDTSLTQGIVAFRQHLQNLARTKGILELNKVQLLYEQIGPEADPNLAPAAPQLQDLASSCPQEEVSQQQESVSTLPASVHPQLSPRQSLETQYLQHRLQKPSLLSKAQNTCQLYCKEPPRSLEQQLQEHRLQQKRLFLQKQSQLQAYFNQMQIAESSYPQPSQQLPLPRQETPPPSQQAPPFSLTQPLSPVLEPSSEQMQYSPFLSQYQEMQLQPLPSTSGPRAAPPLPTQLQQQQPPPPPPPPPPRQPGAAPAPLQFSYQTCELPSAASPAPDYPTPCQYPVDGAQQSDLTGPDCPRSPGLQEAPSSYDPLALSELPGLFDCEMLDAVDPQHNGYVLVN
# Protocol: as §1
# MST3 = target: T7, MST3 (Homo sapiens, UniProt Q9Y6E0)
# T7 construct: lines 1-140) and Reaction Biology
# Protocol: as §1
# MEKK1 = target: T8, MEKK1 (Homo sapiens, UniProt Q13233)
# T8 construct: lines 1-140) and Reaction Biology
# T8 sequence (Q13233 whole entry): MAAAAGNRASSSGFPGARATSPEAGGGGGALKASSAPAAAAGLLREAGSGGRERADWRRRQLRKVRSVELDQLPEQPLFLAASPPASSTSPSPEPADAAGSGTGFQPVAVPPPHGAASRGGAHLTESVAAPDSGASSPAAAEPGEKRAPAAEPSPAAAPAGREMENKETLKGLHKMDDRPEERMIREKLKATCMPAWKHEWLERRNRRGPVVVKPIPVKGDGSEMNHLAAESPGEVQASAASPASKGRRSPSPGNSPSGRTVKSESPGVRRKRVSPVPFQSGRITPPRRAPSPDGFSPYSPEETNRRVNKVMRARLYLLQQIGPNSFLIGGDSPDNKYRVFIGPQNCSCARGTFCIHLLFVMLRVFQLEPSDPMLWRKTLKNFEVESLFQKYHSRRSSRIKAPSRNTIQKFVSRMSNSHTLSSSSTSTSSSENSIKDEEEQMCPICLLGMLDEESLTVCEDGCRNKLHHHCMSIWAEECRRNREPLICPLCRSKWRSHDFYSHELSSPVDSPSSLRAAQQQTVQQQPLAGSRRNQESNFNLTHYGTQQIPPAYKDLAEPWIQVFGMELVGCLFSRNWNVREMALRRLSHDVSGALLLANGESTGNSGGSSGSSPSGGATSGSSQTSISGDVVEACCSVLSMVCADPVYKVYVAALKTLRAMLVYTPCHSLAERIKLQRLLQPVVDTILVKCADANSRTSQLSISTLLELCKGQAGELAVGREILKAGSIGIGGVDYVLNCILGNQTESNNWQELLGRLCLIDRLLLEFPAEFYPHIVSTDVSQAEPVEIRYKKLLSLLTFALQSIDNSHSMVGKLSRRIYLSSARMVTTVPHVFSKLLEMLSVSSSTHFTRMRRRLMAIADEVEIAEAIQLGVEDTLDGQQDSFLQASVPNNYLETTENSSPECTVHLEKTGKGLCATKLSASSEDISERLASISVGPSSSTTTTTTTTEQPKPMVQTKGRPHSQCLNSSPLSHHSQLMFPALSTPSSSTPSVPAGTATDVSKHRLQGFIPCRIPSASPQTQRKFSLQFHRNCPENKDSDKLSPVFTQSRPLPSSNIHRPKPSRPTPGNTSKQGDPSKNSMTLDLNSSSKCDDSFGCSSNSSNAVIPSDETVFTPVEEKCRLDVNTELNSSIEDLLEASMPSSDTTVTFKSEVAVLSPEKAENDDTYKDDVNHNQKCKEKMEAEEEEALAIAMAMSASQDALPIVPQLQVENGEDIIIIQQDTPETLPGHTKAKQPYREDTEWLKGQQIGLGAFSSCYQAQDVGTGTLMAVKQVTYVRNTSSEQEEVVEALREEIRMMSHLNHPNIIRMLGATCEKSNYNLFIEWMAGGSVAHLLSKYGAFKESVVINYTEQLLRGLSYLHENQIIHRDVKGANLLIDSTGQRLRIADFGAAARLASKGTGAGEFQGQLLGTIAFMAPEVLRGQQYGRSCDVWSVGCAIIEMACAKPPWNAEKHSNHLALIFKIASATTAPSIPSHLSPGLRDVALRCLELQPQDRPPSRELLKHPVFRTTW
# Protocol: as §1
# RIPK2 = target: T9, RIPK2 (Homo sapiens, UniProt O43353)
# T9 construct: lines 1-140) and Reaction Biology
# Protocol: as §1
# S6K1 = target: T10, S6K1 (Homo sapiens, UniProt P23443)
# T10 construct: lines 1-140) and Reaction Biology
# Protocol: as §1
# CHK2 = target: T11, CHK2 (Homo sapiens, UniProt O96017)
# T11 construct: lines 1-140) and Reaction Biology
# Protocol: as §1
# ERK2 = target: T12, ERK2 (Homo sapiens, UniProt P28482)
# T12 construct: lines 1-140) and Reaction Biology
# T12 sequence (P28482 whole entry): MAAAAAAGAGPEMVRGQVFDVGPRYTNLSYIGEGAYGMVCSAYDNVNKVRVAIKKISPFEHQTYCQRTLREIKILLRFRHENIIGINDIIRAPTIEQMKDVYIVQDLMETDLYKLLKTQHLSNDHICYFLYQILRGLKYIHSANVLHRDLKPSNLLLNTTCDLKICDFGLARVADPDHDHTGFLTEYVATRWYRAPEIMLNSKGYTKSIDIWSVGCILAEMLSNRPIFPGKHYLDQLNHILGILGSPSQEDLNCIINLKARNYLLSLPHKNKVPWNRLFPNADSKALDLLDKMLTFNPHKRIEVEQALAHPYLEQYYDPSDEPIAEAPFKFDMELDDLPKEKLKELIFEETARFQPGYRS
# Protocol: as §1
# MAPKAP-K2 = target: T13, MAPKAP-K2 (Homo sapiens, UniProt P49137)
# T13 construct: lines 1-140) and Reaction Biology
# T13 sequence (P49137 whole entry): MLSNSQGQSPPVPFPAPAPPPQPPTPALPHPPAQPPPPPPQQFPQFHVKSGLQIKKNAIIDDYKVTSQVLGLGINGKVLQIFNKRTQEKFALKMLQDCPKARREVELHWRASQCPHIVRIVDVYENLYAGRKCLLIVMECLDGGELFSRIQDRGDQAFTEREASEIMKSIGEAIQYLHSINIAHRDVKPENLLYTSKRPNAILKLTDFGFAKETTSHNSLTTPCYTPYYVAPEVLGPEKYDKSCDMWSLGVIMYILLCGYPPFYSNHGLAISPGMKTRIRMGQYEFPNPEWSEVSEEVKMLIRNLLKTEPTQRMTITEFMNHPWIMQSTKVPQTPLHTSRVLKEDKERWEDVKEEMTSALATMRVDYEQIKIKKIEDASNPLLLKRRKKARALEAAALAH
# Protocol: as §1
# MLK3 = target: T14, MLK3 (Homo sapiens, UniProt Q16584)
# T14 construct: lines 1-140) and Reaction Biology
# Protocol: as §1
# MKK1 = target: T15, MKK1 (Homo sapiens, UniProt Q02750)
# T15 construct: lines 1-140) and Reaction Biology
# Protocol: as §1
# p38d MAPK = target: T16, p38d MAPK (Homo sapiens, UniProt O15264)
# T16 construct: lines 1-140) and Reaction Biology
# T16 sequence (O15264 1-365): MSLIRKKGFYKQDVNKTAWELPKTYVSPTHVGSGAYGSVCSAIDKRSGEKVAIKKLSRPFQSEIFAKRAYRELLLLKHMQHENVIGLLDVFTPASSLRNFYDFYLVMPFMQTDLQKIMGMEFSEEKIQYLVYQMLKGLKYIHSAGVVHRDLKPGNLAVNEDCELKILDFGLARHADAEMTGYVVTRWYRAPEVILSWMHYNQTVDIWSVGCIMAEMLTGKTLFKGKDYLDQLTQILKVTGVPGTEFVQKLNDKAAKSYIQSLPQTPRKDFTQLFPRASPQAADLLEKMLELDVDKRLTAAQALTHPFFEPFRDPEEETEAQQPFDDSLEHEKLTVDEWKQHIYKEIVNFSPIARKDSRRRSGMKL
# Protocol: as §1
# LCK = target: T17, LCK (Homo sapiens, UniProt P06239)
# T17 construct: lines 1-140) and Reaction Biology
# Protocol: as §1
# PKCa = target: T18, PKCa (Homo sapiens, UniProt P17252)
# T18 construct: lines 1-140) and Reaction Biology
# Protocol: as §1
# PKCγ = target: T19, PKCγ (Homo sapiens, UniProt P05129)
# T19 construct: lines 1-140) and Reaction Biology
# Protocol: as §1
# EPH-A4 = target: T20, EPH-A4 (Homo sapiens, UniProt P54764)
# T20 construct: lines 1-140) and Reaction Biology
# T20 sequence (P54764 20-986): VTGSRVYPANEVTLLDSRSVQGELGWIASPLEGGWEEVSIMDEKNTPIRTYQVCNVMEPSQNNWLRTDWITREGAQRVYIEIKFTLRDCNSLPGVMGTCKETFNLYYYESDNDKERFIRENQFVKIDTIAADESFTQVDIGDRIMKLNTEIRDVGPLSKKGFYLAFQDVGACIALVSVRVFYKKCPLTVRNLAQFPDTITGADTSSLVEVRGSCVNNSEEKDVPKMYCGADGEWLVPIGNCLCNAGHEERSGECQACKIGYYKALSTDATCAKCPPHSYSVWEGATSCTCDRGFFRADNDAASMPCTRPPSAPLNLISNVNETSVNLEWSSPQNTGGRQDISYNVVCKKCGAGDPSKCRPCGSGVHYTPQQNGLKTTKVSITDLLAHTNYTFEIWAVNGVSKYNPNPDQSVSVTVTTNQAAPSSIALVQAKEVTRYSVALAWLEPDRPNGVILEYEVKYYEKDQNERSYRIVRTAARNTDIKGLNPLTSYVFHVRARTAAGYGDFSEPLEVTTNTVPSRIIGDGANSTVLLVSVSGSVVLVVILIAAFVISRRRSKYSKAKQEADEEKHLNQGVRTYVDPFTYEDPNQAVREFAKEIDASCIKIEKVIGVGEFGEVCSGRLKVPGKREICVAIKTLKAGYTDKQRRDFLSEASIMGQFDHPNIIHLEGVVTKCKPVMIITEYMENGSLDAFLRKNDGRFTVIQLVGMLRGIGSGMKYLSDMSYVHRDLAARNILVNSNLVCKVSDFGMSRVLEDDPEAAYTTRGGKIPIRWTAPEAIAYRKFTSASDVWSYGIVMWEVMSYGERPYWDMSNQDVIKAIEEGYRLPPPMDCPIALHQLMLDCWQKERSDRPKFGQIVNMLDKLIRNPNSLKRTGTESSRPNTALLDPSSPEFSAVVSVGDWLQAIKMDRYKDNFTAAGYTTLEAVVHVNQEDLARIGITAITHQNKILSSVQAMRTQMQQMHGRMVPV
# Protocol: as §1
# YES1 = target: T21, YES1 (Homo sapiens, UniProt P07947)
# T21 construct: lines 1-140) and Reaction Biology
# T21 sequence (P07947 whole entry): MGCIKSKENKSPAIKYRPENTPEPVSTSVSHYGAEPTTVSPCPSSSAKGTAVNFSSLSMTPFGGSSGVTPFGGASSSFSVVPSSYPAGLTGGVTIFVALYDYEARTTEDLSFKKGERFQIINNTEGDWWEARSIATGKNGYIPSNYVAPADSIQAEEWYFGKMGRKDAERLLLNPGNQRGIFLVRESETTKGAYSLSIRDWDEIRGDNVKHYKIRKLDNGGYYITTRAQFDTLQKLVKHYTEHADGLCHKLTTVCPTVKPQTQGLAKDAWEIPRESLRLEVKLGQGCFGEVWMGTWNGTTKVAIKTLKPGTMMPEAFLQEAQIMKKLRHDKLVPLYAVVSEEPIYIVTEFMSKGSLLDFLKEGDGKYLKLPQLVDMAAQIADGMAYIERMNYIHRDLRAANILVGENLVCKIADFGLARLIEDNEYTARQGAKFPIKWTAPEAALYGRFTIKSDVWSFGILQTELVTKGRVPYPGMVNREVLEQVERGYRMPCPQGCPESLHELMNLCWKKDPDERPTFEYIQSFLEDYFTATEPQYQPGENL
# Protocol: as §1
# PAK4 = target: T22, PAK4 (Homo sapiens, UniProt O96013)
# T22 construct: lines 1-140) and Reaction Biology
# Protocol: as §1
# DYRK2 = target: T23, DYRK2 (Homo sapiens, UniProt Q92630)
# T23 construct: lines 1-140) and Reaction Biology
# T23 sequence (Q92630 1-601): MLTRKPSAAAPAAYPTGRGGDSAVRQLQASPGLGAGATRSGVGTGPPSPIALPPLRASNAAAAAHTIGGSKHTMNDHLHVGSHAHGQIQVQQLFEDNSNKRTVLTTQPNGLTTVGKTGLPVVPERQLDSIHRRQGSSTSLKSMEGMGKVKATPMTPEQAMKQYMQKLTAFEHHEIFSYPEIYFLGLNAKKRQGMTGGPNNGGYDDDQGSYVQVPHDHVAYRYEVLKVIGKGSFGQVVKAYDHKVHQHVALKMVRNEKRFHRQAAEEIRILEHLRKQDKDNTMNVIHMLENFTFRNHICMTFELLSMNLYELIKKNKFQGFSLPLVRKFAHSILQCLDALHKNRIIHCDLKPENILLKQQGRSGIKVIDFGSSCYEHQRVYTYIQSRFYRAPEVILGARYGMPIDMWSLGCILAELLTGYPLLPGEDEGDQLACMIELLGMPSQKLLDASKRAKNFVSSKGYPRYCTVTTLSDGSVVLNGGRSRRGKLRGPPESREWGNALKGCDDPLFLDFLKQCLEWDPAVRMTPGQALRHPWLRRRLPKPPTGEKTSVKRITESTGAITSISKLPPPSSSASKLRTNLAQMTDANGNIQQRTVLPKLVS
# Protocol: as §1
# CDK2-Cyclin A = target: T24, CDK2-Cyclin A (Homo sapiens, UniProt P24941)
# T24 construct: lines 1-140) and Reaction Biology
# Protocol: as §1
# SGK1 = target: T25, SGK1 (Homo sapiens, UniProt O00141)
# T25 construct: lines 1-140) and Reaction Biology
# T25 sequence (O00141 1-431): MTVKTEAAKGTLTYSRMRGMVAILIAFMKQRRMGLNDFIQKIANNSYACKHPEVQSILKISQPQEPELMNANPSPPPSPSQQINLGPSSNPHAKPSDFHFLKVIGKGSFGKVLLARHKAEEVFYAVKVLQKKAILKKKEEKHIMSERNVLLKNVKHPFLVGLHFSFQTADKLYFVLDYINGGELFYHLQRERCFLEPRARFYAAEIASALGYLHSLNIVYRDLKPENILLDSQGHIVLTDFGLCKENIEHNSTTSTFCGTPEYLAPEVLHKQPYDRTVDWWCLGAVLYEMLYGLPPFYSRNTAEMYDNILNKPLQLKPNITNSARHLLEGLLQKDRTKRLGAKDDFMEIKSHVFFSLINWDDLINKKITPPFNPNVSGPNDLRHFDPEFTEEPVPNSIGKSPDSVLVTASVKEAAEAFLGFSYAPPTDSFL
# Protocol: as §1
compound,measurement,setting,value
"Oc1ncnc2c1c(-c1ccccc1)cn2-c1ccccc1 [F1386-0303, 5,7-diphenyl-7H-pyrrolo[2,3-d]pyrimidin-4-ol]",remaining activity at 1 µM,IRAK1,107%
same,remaining activity at 1 µM,DAPK1,104%
same,remaining activity at 1 µM,MPSK1,117%
same,remaining activity at 1 µM,JNK3,92%
same,remaining activity at 1 µM,CAMK1,97%
same,remaining activity at 1 µM,SIK2,99%
same,remaining activity at 1 µM,MST3,120%
same,remaining activity at 1 µM,MEKK1,97%
same,remaining activity at 1 µM,RIPK2,105%
same,remaining activity at 1 µM,S6K1,105%
same,remaining activity at 1 µM,CHK2,100%
same,remaining activity at 1 µM,ERK2,99%
same,remaining activity at 1 µM,MAPKAP-K2,101%
same,remaining activity at 1 µM,MLK3,30%
same,remaining activity at 1 µM,MKK1,101%
same,remaining activity at 1 µM,p38d MAPK,114%
same,remaining activity at 1 µM,LCK,112%
same,remaining activity at 1 µM,PKCa,70%
same,remaining activity at 1 µM,PKCγ,105%
same,remaining activity at 1 µM,EPH-A4,92%
same,remaining activity at 1 µM,YES1,85%
same,remaining activity at 1 µM,PAK4,105%
same,remaining activity at 1 µM,DYRK2,93%
same,remaining activity at 1 µM,CDK2-Cyclin A,84%
same,remaining activity at 1 µM,SGK1,101%
O=C1Cc2c([nH]c3ccc(Br)cc23)-c2ccccc2N1 [Kenpaullone],remaining activity at 1 µM,IRAK1,39%
same,remaining activity at 1 µM,DAPK1,82%
same,remaining activity at 1 µM,MPSK1,74%
same,remaining activity at 1 µM,JNK3,87%
same,remaining activity at 1 µM,CAMK1,103%
same,remaining activity at 1 µM,SIK2,13%
same,remaining activity at 1 µM,MST3,67%
same,remaining activity at 1 µM,MEKK1,5%
same,remaining activity at 1 µM,RIPK2,60%
same,remaining activity at 1 µM,S6K1,97%
same,remaining activity at 1 µM,CHK2,25%
same,remaining activity at 1 µM,ERK2,124%
same,remaining activity at 1 µM,MAPKAP-K2,89%
same,remaining activity at 1 µM,MLK3,21%
same,remaining activity at 1 µM,MKK1,97%
same,remaining activity at 1 µM,p38d MAPK,91%
same,remaining activity at 1 µM,PKCa,94%
same,remaining activity at 1 µM,PKCγ,105%
same,remaining activity at 1 µM,EPH-A4,96%
same,remaining activity at 1 µM,YES1,100%
same,remaining activity at 1 µM,PAK4,104%
same,remaining activity at 1 µM,DYRK2,91%
same,remaining activity at 1 µM,CDK2-Cyclin A,93%
same,remaining activity at 1 µM,SGK1,101%
